“And” between values parts separate entries of the source, which are not always exact repeats. Equal values may be shown once.
What was measured:
[1] = tested on: Rattus norvegicus; conditions: for LD50: acute, mortality
[2] = tested on: Canidae; conditions: reproduction developmental; duration: 1 years; Dog Other
[3] = tested on: Anas platyrhynchos; conditions: short-term; oral; feed
[4] = tested on: Coturnix japonica; conditions: acute; oral; mortality
[5] = tested on: Colinus virginianus
[6] = tested on: Mus musculus; conditions: acute; oral; mortality

Structure (SMILES) | NOEL ([1]; chronic) [mg/kg-day] | NOEL [2] [mg/kg-day] | LD50 ([1]; F) [mg/kg] | LD50 ([1]; M) [mg/kg] | LD50 [1] | NOEL [3] | LD50 [4] [mg/kg] | LD50 ([5]; acute, oral, mortality) [mg/kg] | NOEL ([5]; reproduction developmental) | NOEL ([5]; short-term, oral, diet) | LD50 ([1]; oral) [mg/kg] | LC50 ([5]; acute, oral, diet, mortality) [mg/kg-day] | LD50 [6] [mg/kg]
O=C([O-])[C@H](O)[C@@H](O)[C@H](O)[C@H](O)CO.O=C([O-])[C@H](O)[C@@H](O)[C@H](O)[C@H](O)CO.[Cu+2] [Copper gluconate] | 27 | 15 | – | – | – | – | – | – | – | – | – | – | –
O.O.[Cu] [Copper hydroxide (Cu(OH)2)] | – | – | 679 | 736 | 439 mg/kg and 281 mg/kg | 216 mg/kg-day and 191 mg/kg-day | 556 | 223 | 5.05 mg/kg-day and 5.12 mg/kg-day | 124 mg/kg-day and 135 mg/kg-day | – | – | –
[Cu+].[Cu+].[O-2] [Cuprous oxide] | – | – | – | – | – | – | 1180 | – | – | 31.9 mg/kg-day | 261 | – | –
[Cl-].[Cu+2].[Cu+2].[OH-].[OH-].[OH-] [Dicopper chloride trihydroxide] | – | – | 548 | 693 | 1080 mg/kg and 807 mg/kg | – | – | 511 | – | – | – | 333 | 171
